{"source": "patent US11432549B2", "about": "“Carbamoyl triazolinone based herbicide combinations and method of use” (Arysta LifeScience Corporation, priority 2009, dated 2022)", "key": {"[1]": {"tested_on": "Croton glandulosus (CROTON)", "experiment": "Ex 4 pre-emergence, visual % damage", "format": "in vivo", "details": "kg/ha or L/ha: Amicarbazone 1.50, Gesapax 5.00, Karmex 5.00, Provence 0.20, Sencor 3.50, alone", "protocol": "DINAMIC® (amicarbazone) in combination of various herbicides listed in Table 4-1 were tested for herbicidal activity.\nThe herbicidal effect was observed by comparing the extent of Croton glandulosus (CROTON) treated with the compounds against that occurring in similar non-treated control. Herbicidal effect was visually assessed and recorded at 14, 23, 36, 49, 65 and 77 days after treatment (DAT). Damage by the herbicidal compositions was evaluated with reference to a scale of 0% to 100% in comparison with untreated control. 0% means no damage and 100% means complete destruction of the plants. […] The theoretical herbicidal effect index were calculated based on Colby and the values were indicated in bracket (2). Some of the observed herbicidal effects were the same as the theoretical hervicidal effects, which indicate additive effects. The underlined values in the table indicate that the observed weed killing is greater than calculated from the Colby formula and therefore indicates a synergistic weed killing effect or activity."}, "Mustard (Sinapsis sp.)": {"tested_on": "Mustard (Sinapsis sp.)", "experiment": "Ex 5/7 greenhouse spray, bleaching/injury ratings", "format": "in vivo", "protocol": "Containers were watered as needed based on species and water usage. The greenhouse was heated to keep temperatures above 50° F. (10° C.) and ventilated as needed to keep temperatures below 100° F. (38° C.). Typical daytime temperatures in the greenhouse were 80-90° F. (27-32° C.) and nighttime temperatures were between 50-60° F. (10-16° C.). The soil employed was Promix BX potting soil. Overall moisture conditions were normal and the closest weather station was on-site. Conditions and equipment employed in this Example are tabulated below in Tables 5-1 and 5-2.\nAll containers were moved outdoors from the greenhouse and arranged in blocks by treatment for the herbicide applications. A single spray application was applied to each block containing four repetitions of each species for each treatment. Plants were then immediately returned to the greenhouse and irrigated with approximately ¼″ water 1-3 hrs after treatment with a hose end sprayer. Only the Poa plants were trimmed with scissors two days prior to treatment at a height of approximately 3 inches.\nReferring to FIGS. 2A-B, 3A-C, 4A-C, and 5A-D, all ratings of injury or bleaching are based on a scale from 1 to 9. […] Any bleaching measurement 4 and above was considered unacceptable for desirable turf species. In injury measurements, 1 indicates no injury while 9 indicates a dead plant. Any injury measurement 4 and above was considered unacceptable for desirable turf species). Density correlates with percent cover where 1 indicates no grass while 9 indicates a full pot.\nReplications employed include 4, Untreated treatments: 1, Design: Randomized Complete Block, Treatment units: US standard, Treated plot size Width: 4 feet, Treated plot size Length: 4 feet, Application volume: 50 gal/ac, Mix size: 0.5562 liters, Mix overage: 100%, Format definitions: G-All7.DEF, G-All7.FRM.\nIn evaluating synergism, the data from Example 5 above were converted to % of control. This was done based on the data provided on a 1-9 scale detailed in Example 5. Expected values were computed from the % of control data by the formula for expected control=[…], where A is the % of control value for herbicide A alone and B is the % of control value for herbicide B alone."}, "[2]": {"details": "6 DA-A, Trt 2/4/6: Amicarbazone 0.0219, Tenacity 0.125 lb ai/a"}, "[3]": {"details": "6 DA-A, Trt 3/5/9: Amicarbazone 0.131, Tenacity 0.25 lb ai/a"}, "[4]": {"details": "7 DA-A, Trt 2/4/6: Amicarbazone 0.0219, Tenacity 0.125 lb ai/a"}, "[5]": {"details": "7 DA-A, Trt 3/5/9: Amicarbazone 0.131, Tenacity 0.25 lb ai/a"}, "[6]": {"details": "rating 1, 0.022 lbs ai/A (0.5 oz/A)"}, "[7]": {"details": "rating 1, 0.13 lbs ai/A (3 oz/A)"}, "[8]": {"details": "rating 2, 0.022 lbs ai/A (0.5 oz/A)"}, "[9]": {"details": "rating 2, 0.13 lbs ai/A (3 oz/A)"}}, "data": [{"smiles": "CC(C)c1nn(C(=O)NC(C)(C)C)c(=O)n1N", "note": "[Amicarbazone, 4-amino-5-isopropyl-2-(tert-butyl-aminocarbonyl)-2,4-dihydro-3H-1,2,4-triazol-3-one]", "values": [{"measurement": "percentage control", "setting": "[1]; 14 DAT", "result": 100, "unit": "%"}, {"measurement": "percentage control", "setting": "[1]; 23 DAT", "result": 99, "unit": "%"}, {"measurement": "percentage control", "setting": "[1]; 36 DAT", "result": 99, "unit": "%"}, {"measurement": "percentage control", "setting": "[1]; 49 DAT", "result": 99, "unit": "%"}, {"measurement": "percentage control", "setting": "[1]; 65 DAT", "result": 99, "unit": "%"}, {"measurement": "percentage control", "setting": "[1]; 77 DAT", "result": 99, "unit": "%"}, {"measurement": "Injury (1-9 scale)", "setting": "Mustard (Sinapsis sp.); 3 DA-A, Trt 2/4/6: Amicarbazone 0.0219, Tenacity 0.125 lb ai/a", "result": 2.8, "unit": "b"}, {"measurement": "Injury (1-9 scale)", "setting": "Mustard (Sinapsis sp.); 3 DA-A, Trt 3/5/9: Amicarbazone 0.131, Tenacity 0.25 lb ai/a", "result": 6.8, "unit": "a"}, {"measurement": "Bleaching (1-9 scale)", "setting": "Mustard (Sinapsis sp.); [2]", "result": 2.0, "unit": "bc"}, {"measurement": "Injury (1-9 scale)", "setting": "Mustard (Sinapsis sp.); [2]", "result": 2.8, "unit": "c"}, {"measurement": "Bleaching (1-9 scale)", "setting": "Mustard (Sinapsis sp.); [3]", "result": 1.3, "unit": "c"}, {"measurement": "Injury (1-9 scale)", "setting": "Mustard (Sinapsis sp.); [3]", "result": 6.5, "unit": "ab"}, {"measurement": "Bleaching (1-9 scale)", "setting": "Mustard (Sinapsis sp.); [4]", "result": 2.0, "unit": "bc"}, {"measurement": "Injury (1-9 scale)", "setting": "Mustard (Sinapsis sp.); [4]", "result": 4.3, "unit": "c"}, {"measurement": "Bleaching (1-9 scale)", "setting": "Mustard (Sinapsis sp.); [5]", "result": 2.0, "unit": "bc"}, {"measurement": "Injury (1-9 scale)", "setting": "Mustard (Sinapsis sp.); [5]", "result": 7.0, "unit": "b"}, {"measurement": "Injury (1-9 scale)", "setting": "Mustard (Sinapsis sp.); 10 DA-A, Trt 2/4/6: Amicarbazone 0.0219, Tenacity 0.125 lb ai/a", "result": 6.0, "unit": "b"}, {"measurement": "Injury (1-9 scale)", "setting": "Mustard (Sinapsis sp.); 10 DA-A, Trt 3/5/9: Amicarbazone 0.131, Tenacity 0.25 lb ai/a", "result": 8.8, "unit": "a"}, {"measurement": "Injury (1-9 scale)", "setting": "Mustard (Sinapsis sp.); 14 DA-A, Trt 2/4/6: Amicarbazone 0.0219, Tenacity 0.125 lb ai/a", "result": 5.8, "unit": "b"}, {"measurement": "Injury (1-9 scale)", "setting": "Mustard (Sinapsis sp.); 14 DA-A, Trt 3/5/9: Amicarbazone 0.131, Tenacity 0.25 lb ai/a", "result": 8.8, "unit": "a"}, {"measurement": "Mustard bleaching", "setting": "Mustard (Sinapsis sp.); [6]", "result": "119 % of control"}, {"measurement": "Mustard injury", "setting": "Mustard (Sinapsis sp.); [6]", "result": "78 % of control"}, {"measurement": "Mustard bleaching", "setting": "Mustard (Sinapsis sp.); [7]", "result": "132 % of control"}, {"measurement": "Mustard injury", "setting": "Mustard (Sinapsis sp.); [7]", "result": "28 % of control"}, {"measurement": "Mustard bleaching", "setting": "Mustard (Sinapsis sp.); [8]", "result": "94 % of control"}, {"measurement": "Mustard injury", "setting": "Mustard (Sinapsis sp.); [8]", "result": "78 % of control"}, {"measurement": "Mustard bleaching", "setting": "Mustard (Sinapsis sp.); [9]", "result": "94 % of control"}, {"measurement": "Mustard injury", "setting": "Mustard (Sinapsis sp.); [9]", "result": "31 % of control"}, {"measurement": "Mustard injury", "setting": "Mustard (Sinapsis sp.); rating 3, 0.022 lbs ai/A (0.5 oz/A)", "result": "61 % of control"}, {"measurement": "Mustard injury", "setting": "Mustard (Sinapsis sp.); rating 3, 0.13 lbs ai/A (3 oz/A)", "result": "26 % of control"}, {"measurement": "Mustard injury", "setting": "Mustard (Sinapsis sp.); rating 4, 0.022 lbs ai/A (0.5 oz/A)", "result": "39 % of control"}, {"measurement": "Mustard injury", "setting": "Mustard (Sinapsis sp.); rating 4, 0.13 lbs ai/A (3 oz/A)", "result": "3 % of control"}, {"measurement": "Mustard injury", "setting": "Mustard (Sinapsis sp.); rating 5, 0.022 lbs ai/A (0.5 oz/A)", "result": "42 % of control"}, {"measurement": "Mustard injury", "setting": "Mustard (Sinapsis sp.); rating 5, 0.13 lbs ai/A (3 oz/A)", "result": "3 % of control"}]}]}
